Source: US20100190710A1, “IL-23 RECEPTOR ANTAGONISTS AND USES THEREOF” (Valorisation HSJ, Societe en Commandite, priority 2007, published 2010)
“Also recorded” adds a separate entry of the source. Peptide text beside a SMILES is read from it.

Legend:
[1] = test system: PMA-induced dermatitis (ear); assay: PMA-induced dermatitis, intraperitoneal injection; assay type: in vivo, CD-1 mice; settings: intraperitoneal injection (0.1-1 mg/kg/day)
Protocol: FIG. 12 is a series of images and graphs showing the effect of intraperitoneal injection of the 2309 peptide on PMA-induced dermatitis. On day 1, 10 μl of a 0.01% solution of PMA (v/v in acetone) was applied on the external and internal surfaces of the left ear of CD-1 mice (images in left column). Twenty-four hours later, different doses of the 2309 peptide were injected intraperitoneally (0.1 mg/kg/day; 0.5 mg/kg/day; 1 mg/kg/day bid; n=4 for each group treatment). Animals were sacrificed on day 4 (6 hours after the last 2309 injection). The weight (right column, top graph) and thickness (right column, bottom graph) of all ear punches were then determined and the peptide-treated ears with PMA were compared to PMA-only ears.

PMA-induced ear edema = assay: PMA-induced ear edema, enteral (oral) administration; assay type: in vivo, rats; settings: 20 mg/kg administered orally
Protocol: FIGS. 13A and 13B are graphs showing the effect of peptides APG-2305 (FIG. 13A) and APG-2309 (FIG. 13B) on PMA-induced inflammation. Intraperitoneal administration is abreviated “i.p.” and oral administration is abreviated “p.o.” Peptides APG-2305 and APG-2309 were also given by enteral administration to rats to verify their oral availability. The peptides at various concentrations were injected (twice a day; 200 μl) into the stomach with a gavage needle (Number 20) starting at day 2 of PMA treatment. On day 4 the total peptide dose was given as a bolus and animals were sacrificed 4-6 hours later. […] Scrambled peptide of APG-2305 (5 mg/kg/day) and intraperitoneal APG-2305 served as negative and positive controls respectively. APG-2309 was also injected enterally but inhibit PMA-induced ear edema only slightly at 20 mg/kg administered orally (FIG. 13B). APG-2309 is more hydrophobic than APG-2305.

IL-12R = molecular target: T1, IL-12R (Homo sapiens, UniProt P42701+Q99665); assay: IL-12-induced STAT4 phosphorylation (selectivity, Western blot); assay type: cell-based; settings: even at high concentrations, i.e., 10 μM
T1 construct: endogenous in cells
T1 sequence (Q99665 24-862, other chains not shown): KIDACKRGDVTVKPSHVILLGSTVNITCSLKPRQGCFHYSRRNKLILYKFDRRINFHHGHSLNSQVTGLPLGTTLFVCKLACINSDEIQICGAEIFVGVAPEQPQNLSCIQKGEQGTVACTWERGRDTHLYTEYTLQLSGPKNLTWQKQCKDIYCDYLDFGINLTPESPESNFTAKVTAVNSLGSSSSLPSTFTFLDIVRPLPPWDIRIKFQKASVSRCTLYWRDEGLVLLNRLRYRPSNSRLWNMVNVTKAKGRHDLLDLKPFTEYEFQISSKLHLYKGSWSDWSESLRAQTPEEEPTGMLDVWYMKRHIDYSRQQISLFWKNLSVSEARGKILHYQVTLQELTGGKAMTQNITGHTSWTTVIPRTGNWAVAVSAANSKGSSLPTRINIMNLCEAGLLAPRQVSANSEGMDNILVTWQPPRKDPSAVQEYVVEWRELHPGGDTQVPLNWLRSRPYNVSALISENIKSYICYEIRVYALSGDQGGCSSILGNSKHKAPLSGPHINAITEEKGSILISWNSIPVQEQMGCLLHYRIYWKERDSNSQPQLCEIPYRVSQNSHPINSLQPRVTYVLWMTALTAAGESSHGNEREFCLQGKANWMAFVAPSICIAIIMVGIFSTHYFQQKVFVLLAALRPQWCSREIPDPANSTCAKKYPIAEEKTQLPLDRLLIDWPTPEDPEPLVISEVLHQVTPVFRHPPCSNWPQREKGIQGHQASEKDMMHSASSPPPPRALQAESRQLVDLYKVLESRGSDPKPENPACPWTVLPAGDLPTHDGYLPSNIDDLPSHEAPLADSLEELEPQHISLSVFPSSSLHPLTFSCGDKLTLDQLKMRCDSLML
Protocol: FIGS. 8A and 8B are a series of graphs and Western Blots showing the specificity and selectivity of IL-23R binding peptides. […] [^125I]-2305 binding was performed in phosphate buffer saline pH=7.4 on PMA-activated HL-60 cells. [^125I]-labelled and unlabelled peptide 2305 was incubated with cells for 1 hour for equilibration. Cells were then washed four times and bound radioactivity measured using a Cobra II Autogamma gamma counter (Packard). Non-activated HL-60 cells, which express little IL-23R, were used as a negative control (shown on Western Blot of IL-23 receptor). A robust increase in IL-23R expression by PMA was observed on duplicate Western blots. Peptide 2305 is easily labelled with [^125I] on its tyrosine; in absence of tyrosine (e.g., peptide 2309) [^14C]-labelled amino acids can be used. […] IL-12R is very homologous to IL-23R. Western Blots of phosphorylated STAT4 and total STAT4 were performed on cell lysates.

IL-23R = molecular target: T2, IL-23R (Mus musculus, UniProt Q8K4B4); assay: IL-23-induced STAT3 phosphorylation in freshly isolated splenocytes (Alpha Screen SureFire p-STAT-3); assay type: cell-based; settings: freshly isolated splenocytes; listed as APG-2309
T2 construct: Spleens were sterilely removed from mice, sliced, and mashed in the presence of PBS buffer; from tissue; host or cells: mouse spleen: freshly isolated splenocytes, and CD4+ cells differentiated into TH17 cells
T2 sequence (Q8K4B4 24-644): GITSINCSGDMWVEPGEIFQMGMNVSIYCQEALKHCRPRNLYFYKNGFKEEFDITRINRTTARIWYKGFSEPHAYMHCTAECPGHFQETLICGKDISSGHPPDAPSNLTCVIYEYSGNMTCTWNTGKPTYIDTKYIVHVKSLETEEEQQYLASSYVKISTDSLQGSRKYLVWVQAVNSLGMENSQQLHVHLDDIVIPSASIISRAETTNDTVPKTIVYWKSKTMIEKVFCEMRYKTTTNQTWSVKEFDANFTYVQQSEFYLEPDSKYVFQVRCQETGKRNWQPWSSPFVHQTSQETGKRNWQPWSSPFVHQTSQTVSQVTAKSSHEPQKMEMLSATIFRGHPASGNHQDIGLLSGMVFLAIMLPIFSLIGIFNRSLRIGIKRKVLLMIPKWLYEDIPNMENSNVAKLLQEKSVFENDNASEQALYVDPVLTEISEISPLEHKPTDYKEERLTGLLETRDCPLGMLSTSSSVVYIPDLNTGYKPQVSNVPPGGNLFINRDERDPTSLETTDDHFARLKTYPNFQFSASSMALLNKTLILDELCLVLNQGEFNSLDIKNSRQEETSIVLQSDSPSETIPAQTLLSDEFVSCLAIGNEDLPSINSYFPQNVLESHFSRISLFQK
Protocol: Spleens were sterilely removed from mice, sliced, and mashed in the presence of PBS buffer, 2% fetal bovine serum, and 1 mM EDTA. Tissue was allowed to pass through a number 26 syringe and was filtered through a 70 μm mesh nylon strainer. Cells were cultured with non-essential amino acids, 2 μg/ml of anti-CD3, and 20 μg/ml of anti-CD-28 as survival and differentiation factors.
Splenocytes or TH17 cells were distributed in 384-well plates (Optiplate; Perkin Elmer) (100,000 cells/well). Cells were pre-incubated for 30 minutes with different concentrations of peptide APG-2305 or APG-2309 and incubated with 25 ng/ml of IL-23 (R&D systems) for 10 minutes. STAT3 phosphorylation was determined with the kit Alpha Screen SureFire p-STAT-3 assay from Perkin Elmer according to manufacturer's instructions. Briefly, after incubation with IL-23, cells were lysed and contacted with (1) protein A acceptor conjugated beads coated with anti-p-STAT-3 (Tyr705) and (2) streptavidin-coated donor beads. The resulting signal was measured with a Perkin Elmer Wallac En vision 2104 Multilabel reader. Graphs were generated using GraphPrism 4 software.
The effect of peptide APG-2305 and APG-2309 derivatives on IL-23-induced STAT3 phosphorylation was determined using CD-1 mice freshly isolated splenocytes and the Alpha Screen p-STAT3 assay (see above materials and methods) (FIGS. 6 and 7). […] As described herein, based on the efficacy of derivatives, we have identified regions in APG-2305 and APG-2309 peptides that are important for their ability to affect IL-23R activity.

MOG-induced EAE = assay: Experimental Autoimmune Encephalitis (EAE) model; assay type: in vivo, C57/BL6 mice; settings: for clinical signs of EAE: intraperitoneal
[2] = three times a day (3 mg/kg/day), Sudan black stain, listed as APG-2309

CSCC[C@@H](N)C(=O)N[C@H](CCC(=O)O)C(=O)N[C@H](CCC(=O)O)C(=O)N[C@H](CO)C(=O)N[C@H](CCCCN)C(=O)N[C@H](CCC(N)=O)C(=O)N[C@H](CC(C)C)C(=O)N[C@H](CCC(N)=O)C(=O)N[C@H](CC(C)C)C(=O)O [Peptide 2309, MEESKQLQL] (HELM PEPTIDE1{[dM].[dE].[dE].[dS].[dK].[dQ].[dL].[dQ].[dL]}$$$$V2.0; N-terminus and C-terminus assumed)
redness and ear weight [1]: able to treat PMA-induced dermatitis as evidenced by a decrease in redness and ear weight | PMA-induced ear edema (PMA-induced ear edema): only slightly | effect on IL-12-induced STAT4 phosphorylation (IL-12R): does not inhibit; also recorded: inability | effect on IL-23-induced STAT3 phosphorylation (IL-23R): inhibit; also recorded: showed efficacy | EAE-induced demyelination of the cerebellum (MOG-induced EAE; [2]): protects against EAE-induced demyelination of the cerebellum; also recorded: totally prevents | EAE-induced demyelination of the spinal cord (MOG-induced EAE; [2]): protects against EAE-induced demyelination of the spinal cord; also recorded: totally prevents | clinical signs of EAE (MOG-induced EAE; treatment three times a day): completely abolished the induction of the disease symptoms | clinical signs of EAE (MOG-induced EAE; twice a day at 2 mg/kg/day): retarded the appearance of the clinical signs of EAE
